Reference: patent publication US11046709B2, “Fused 1,4-diazepines as BET bromodomain inhibitors” (THE REGENTS OF THE UNIVERSITY OF MICHIGAN, priority 2017, dated 2021)

Experiments:
[1] = Plasma exposure after oral gavage in mice, LC-MS/MS; format: in vivo; conditions: mouse, in vivo, po, 25 mg/kg
Description: For a number of representative compounds in Table 5, their plasma exposures with oral administration in mice via oral gavage were determined by LC-MS/MS, with the data shown in Table 9.

[2] = tested on: MOLM-13; test: Cell growth inhibition, 4-day proliferation assay, MOLM-13; format: cell-based; conditions: Homo sapiens, MOLM-13, WST-8 assay, Table 7; read-out: Cell growth inhibition (IC50 (nM)) MOLM-13
[3] = tested on: MDA-MB-231; test: Cell growth inhibition, 4-day proliferation assay, MDA-MB-231; format: cell-based; conditions: Homo sapiens, MDA-MB-231; WST-8 assay, Table 7; read-out: Cell growth inhibition (IC50 (nM)) MDA-MB-231
How it was run: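 WST-8 colorimetric read-out (absorbance 450 nm after 1-2 h) after 4-day compound exposure of 3,000-10,000 cells/well at 37 °C; IC50 from variable-slope sigmoid fit of DMSO-normalized signal.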

| SMILES | concentration at 1 h [1] | concentration at 3 h [1] | concentration at 6 h [1] | IC50 [2] | IC50 [3] |
| --- | --- | --- | --- | --- | --- |
| Cc1nnc(C[C@@H]2N=C(c3ccc(Cl)cc3)c3c(sc(C#CC4(C)COC4)c3C)-n3c(C)nnc32)o1 [Compound 149, (S)-2-((4-(4-chlorophenyl)-3,9-dimethyl-2-((3-methyloxetan-3-yl)ethynyl)-6H-thieno[3,2-f][1,2,4]triazolo[4,3-a][1,4]diazepin-6-yl)methyl)-5-methyl-1,3,4-oxadiazole] | 13000 ng/mL | 12800 ng/mL | 6640 ng/mL | – | – |
| Cc1nnc(C[C@@H]2N=C(c3ccc(Cl)cc3)c3c(sc(C#CC4CCOCC4)c3C)-n3c(C)nnc32)s1 [Compound 151, (S)-4-(4-chlorophenyl)-3,9-dimethyl-6-((5-methyl-1,3,4-thiadiazol-2-yl)methyl)-2-((tetrahydro-2H-pyran-4-yl)ethynyl)-6H-thieno[3,2-f][1,2,4]triazolo[4,3-a][1,4]diazepine] | 451 ng/mL | 299 ng/mL | 115 ng/mL | 81.6 nM | – |
| Cc1c(C#CC2CCOCC2)sc2c1C(c1ccc(Cl)cc1)=N[C@@H](CC(N)=O)c1nnc(C)n1-2 [Compound 152, (S)-2-(4-(4-chlorophenyl)-3,9-dimethyl-2-((tetrahydro-2H-pyran-4-yl)ethynyl)-6H-thieno[3,2-f][1,2,4]triazolo[4,3-a][1,4]diazepin-6-yl)acetamide] | 1120 ng/mL | 472 ng/mL | 231 ng/mL | 30 nM | – |
| Cc1c(C#CC2CCOCC2)sc2c1C(c1ccc(Cl)cc1)=N[C@@H](CC(=O)N1CCOCC1)c1nnc(C)n1-2 [Compound 154, (S)-2-(4-(4-chlorophenyl)-3,9-dimethyl-2-((tetrahydro-2H-pyran-4-yl)ethynyl)-6H-thieno[3,2-f][1,2,4]triazolo[4,3-a][1,4]diazepin-6-yl)-1-morpholinoethan-1-one] | 1040 ng/mL | 372 ng/mL | 220 ng/mL | 38.8 nM | – |
| Cc1c(C#CC2CCOCC2)sc2c1C(c1ccc(Cl)cc1)=N[C@@H](CC(=O)Nc1ccc(O)cc1)c1nnc(C)n1-2 [Compound 155, (S)-2-(4-(4-chlorophenyl)-3,9-dimethyl-2-((tetrahydro-2H-pyran-4-yl)ethynyl)-6H-thieno[3,2-f][1,2,4]triazolo[4,3-a][1,4]diazepin-6-yl)-N-(4-hydroxyphenyl)acetamide] | 832 ng/mL | 127 ng/mL | 42 ng/mL | 69.3 nM | – |
| Cc1c(C#CC2CCOCC2)sc2c1C(c1ccc(Cl)cc1)=N[C@@H](CC(=O)N1CC(F)(F)C1)c1nnc(C)n1-2 [Compound 156, (S)-2-(4-(4-chlorophenyl)-3,9-dimethyl-2-((tetrahydro-2H-pyran-4-yl)ethynyl)-6H-thieno[3,2-f][1,2,4]triazolo[4,3-a][1,4]diazepin-6-yl)-1-(3,3-difluoroazetidin-1-yl)ethan-1-one] | 805 ng/mL | 473 ng/mL | 226 ng/mL | 36.1 nM | – |
| Cc1c(C#Cc2cnn(C)c2)sc2c1C(c1ccc(Cl)cc1)=N[C@@H](CC(N)=O)c1nnc(C)n1-2 [Compound 166, (S)-2-(4-(4-chlorophenyl)-3,9-dimethyl-2-((1-methyl-1H-pyrazol-4-yl)ethynyl)-6H-thieno[3,2-f][1,2,4]triazolo[4,3-a][1,4]diazepin-6-yl)acetamide] | 55 ng/mL | 30 ng/mL | < 1 ng/mL | 28.9 nM | 214 ± 42.2 nM |
| CCNC(=O)C[C@@H]1N=C(c2ccc(Cl)cc2)c2c(sc(C#Cc3cnn(C)c3)c2C)-n2c(C)nnc21 [Compound 167, (S)-2-(4-(4-chlorophenyl)-3,9-dimethyl-2-((1-methyl-1H-pyrazol-4-yl)ethynyl)-6H-thieno[3,2-f][1,2,4]triazolo[4,3-a][1,4]diazepin-6-yl)-N-ethylacetamide] | 12 ng/mL | < 1 ng/mL | < 1 ng/mL | 26.7 nM | 129 ± 40 nM |
| Cc1c(C#Cc2cncn2C)sc2c1C(c1ccc(Cl)cc1)=N[C@@H](CC(N)=O)c1nnc(C)n1-2 [Compound 168, (S)-2-(4-(4-chlorophenyl)-3,9-dimethyl-2-((1-methyl-1H-imidazol-5-yl)ethynyl)-6H-thieno[3,2-f][1,2,4]triazolo[4,3-a][1,4]diazepin-6-yl)acetamide] | 80 ng/mL | 22 ng/mL | 20 ng/mL | 145 nM | 716 ± 162 nM |
| CCNC(=O)C[C@@H]1N=C(c2ccc(Cl)cc2)c2c(sc(C#Cc3cncn3C)c2C)-n2c(C)nnc21 [Compound 169, (S)-2-(4-(4-chlorophenyl)-3,9-dimethyl-2-((1-methyl-1H-imidazol-5-yl)ethynyl)-6H-thieno[3,2-f][1,2,4]triazolo[4,3-a][1,4]diazepin-6-yl)-N-ethylacetamide] | 611 ng/mL | 29 ng/mL | 5 ng/mL | 63.9 nM | 203 ± 57 nM |
